The supplement of paper PMC10307832

Compound: Cc1ccc2nc(NCCN)c3ncc(C)n3c2c1 + C[C@]1(O)C[C@@H](c2nc(-c3ccc4ccc(-c5ccccc5)nc4c3)c3c(N)nccn32)C1 [Linsitinib] (partner 1 µM)
Assay: relative viability (nuclei count vs DMSO), 5 days (fraction); higher = more cells survive
Conditions: first compound 0.4 µM
In short: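 After 5 days of treatment, lung cancer cells in 1536-well plates were fixed and stained in a single step (final 0.05% Triton X-100, 1% formaldehyde, 1 ug/ml Hoechst) and their nuclei counted on 4× images. Treatment had been applied by pin tool the day after seeding as one drug alone or as a fixed anchor-drug dose with five library-drug doses (not always all listed) in √10 steps. Relative viability is the nuclei count of treated wells divided by that of vehicle wells, and values are medians of duplicate plates.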

| Cell Line | relative viability |
| --- | --- |
| NCI-H1734 | 0.765 |
| NCI-H460 | 0.751 |
| NCI-H2347 | 0.944 |
| SK-LU-1 | 1.12 |
| 201T | 1.04 |
| NCI-H1915 | 1.16 |
| HCC-827 | 0.91 |
| LXF-289 | 0.967 |
| NCI-H23 | 0.55 |
| NCI-H647 | 1.22 |
| CAL-12T | 0.853 |
| NCI-H1651 | 0.982 |
| EPLC-272H | 1.13 |
| NCI-H2228 | 0.587 |
| NCI-H1792 | 0.484 |
| NCI-H1355 | 0.814 |
| NCI-H3122 | 0.999 |

Same assay, conditions: first compound 1.265 µM

| Cell Line | relative viability |
| --- | --- |
| COR-L23 | 0.988 |
| COR-L 105 | 1.1 |
| LOU-NH91 | 0.942 |
| NCI-H2405 | 1.03 |
| HOP-62 | 0.922 |
| HCC-44 | 0.625 |
| SK-MES-1 | 1.05 |
| LU99A | 0.561 |
| BEN | 0.795 |
| HARA | 0.791 |
| HCC-78 | 0.491 |
| NCI-H322M | 0.79 |
| LCLC-97TM1 | 0.19 |
| NCI-H2009 | 1.22 |
| A-427 | 1.09 |
| NCI-H1734 | 0.884 |

| Cell Line | relative viability |
| --- | --- |
| NCI-H460 | 0.692 |
| NCI-H2347 | 0.829 |
| SK-LU-1 | 1.16 |
| 201T | 0.98 |
| NCI-H1915 | 1.1 |
| HCC-827 | 0.946 |
| LXF-289 | 0.975 |
| NCI-H23 | 0.611 |
| NCI-H647 | 1.08 |
| CAL-12T | 0.877 |
| NCI-H1651 | 0.928 |
| EPLC-272H | 1.32 |
| NCI-H2228 | 0.751 |
| NCI-H1792 | 0.463 |
| NCI-H1355 | 0.771 |
| NCI-H3122 | 0.982 |

Same assay, conditions: first compound 4 µM

| Cell Line | relative viability |
| --- | --- |
| COR-L23 | 0.816 |
| COR-L 105 | 0.845 |
| LOU-NH91 | 0.959 |
| NCI-H2405 | 0.763 |
| HOP-62 | 0.89 |
| HCC-44 | 0.69 |
| SK-MES-1 | 1.03 |
| LU99A | 0.522 |
| BEN | 0.914 |
| HARA | 0.927 |
| HCC-78 | 0.448 |
| NCI-H322M | 0.899 |
| LCLC-97TM1 | 0.201 |
| NCI-H2009 | 1.05 |
| A-427 | 1.19 |
| NCI-H661 | 0.543 |
| NCI-H1734 | 0.814 |

| Cell Line | relative viability |
| --- | --- |
| NCI-H460 | 0.642 |
| NCI-H2347 | 0.893 |
| SK-LU-1 | 1.04 |
| 201T | 0.992 |
| NCI-H1915 | 1 |
| HCC-827 | 0.938 |
| LXF-289 | 1.01 |
| NCI-H23 | 0.576 |
| NCI-H647 | 1.18 |
| CAL-12T | 0.731 |
| NCI-H1651 | 0.795 |
| EPLC-272H | 1.15 |
| NCI-H2228 | 0.44 |
| NCI-H1792 | 0.405 |
| NCI-H1355 | 0.719 |
| NCI-H3122 | 1.04 |
